Data on 28 molecules can be found in US9284333B2, “Fused pyrroledicarboxamides and their use as pharmaceuticals” (SANOFI, priority 2012, dated 2016).

The target in the first assay is Human TASK-1 channels (Homo sapiens (Human), UniProt O14649). As to the kind of experiment: Determination of the activity on the TASK-1 channel in Xenopus oocytes (two-microelectrode voltage clamp). It counts as cell-based. The conditions noted are these: compound concentration 5 μM. The method in brief: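 Current during 500 ms pulses to 40 mV from a −90 mV hold was recorded in oocytes expressing human TASK-1 for two days after cRNA injection. Compounds were added cumulatively to the ND96 bath (pH 7.4, room temperature). IC50 came from dose-response fitting of inhibition relative to pre-compound current.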
Sequence of Human TASK-1 channels (O14649 whole entry): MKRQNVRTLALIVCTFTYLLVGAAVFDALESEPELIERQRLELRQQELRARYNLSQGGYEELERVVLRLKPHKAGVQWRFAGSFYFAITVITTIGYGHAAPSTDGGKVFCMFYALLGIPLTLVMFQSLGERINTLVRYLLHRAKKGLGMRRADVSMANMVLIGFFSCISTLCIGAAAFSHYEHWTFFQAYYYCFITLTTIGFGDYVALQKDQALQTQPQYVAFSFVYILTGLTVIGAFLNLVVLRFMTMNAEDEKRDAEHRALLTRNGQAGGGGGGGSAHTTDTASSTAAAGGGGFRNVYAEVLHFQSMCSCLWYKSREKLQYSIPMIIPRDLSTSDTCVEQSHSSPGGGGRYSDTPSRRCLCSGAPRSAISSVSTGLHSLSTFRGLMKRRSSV
`CC[C@@H](NC(=O)c1cc(C(=O)N2CCC[C@@H]2C)n2c1COCC2)c1cncc(Cl)c1` [16cj, 6-((S)-2-Methyl-pyrrolidine-1-carbonyl)-3,4-dihydro-1H-pyrrolo[2,1-c][1,4]oxazine-8-carboxylic acid [(R)-1-(5-chloro-pyridin-3-yl)-propyl]-amide] registered an inhibition at 5 µM of 69%.

For the molecule `CC[C@@H](NC(=O)c1cc(C(=O)N[C@H](CC)c2nccs2)n2c1COCC2)c1ccc(C(F)(F)F)nc1` (racemic) [16pd, 3,4-Dihydro-1H-pyrrolo[2,1-c][1,4]oxazine-6,8-dicarboxylic acid 6-[((R)-1-thiazol-2-yl-propyl)-amide] 8-{[(R)-1-(6-trifluoromethyl-pyridin-3-yl)-propyl]-amide}], the inhibition at 5 µM is 82%.

The same assay, now with this note: human TASK-1 expressed in Xenopus oocytes, room temperature; read-out: IC50 value for TASK-1 inhibition.
For `CC[C@@H](NC(=O)c1cc(C(=O)N2CCC[C@@H]2C)n2c1COCC2)c1ccc(C#N)cc1Cl` [16bb, 6-((S)-2-Methyl-pyrrolidine-1-carbonyl)-3,4-dihydro-1H-pyrrolo[2,1-c][1,4]oxazine-8-carboxylic acid [(R)-1-(2-chloro-4-cyano-phenyl)-propyl]-amide], the IC50 was determined as 790 nM.

With `CC[C@@H](NC(=O)c1cc(C(=O)N[C@@H](c2ccccc2)C2CC2)n2c1CCCC2)c1ccccc1` [16mv, 5,6,7,8-Tetrahydro-indolizine-1,3-dicarboxylic acid 3-[((R)-cyclopropyl-phenyl-methyl)-amide] 1-[((R)-1-phenyl-propyl)-amide]], the IC50 amounted to 48 nM.

With `CC[C@H]1CCCN1C(=O)c1cc(C(=O)N[C@H](CC)c2ccccc2)c2n1CCOC2` (racemic) [16fc, 6-((S)-2-Ethyl-pyrrolidine-1-carbonyl)-3,4-dihydro-1H-pyrrolo[2,1-c][1,4]oxazine-8-carboxylic acid ((R)-1-phenyl-propyl)-amide], the IC50 was 25 nM.

Regarding `CC[C@@H](NC(=O)c1cc(C(=O)NCc2nc3ccccc3o2)c2n1CCOC2)c1ccccc1` [16js, 3,4-Dihydro-1H-pyrrolo[2,1-c][1,4]oxazine-6,8-dicarboxylic acid 8-[(benzooxazol-2-ylmethyl)-amide] 6-[((R)-1-phenyl-propyl)-amide]], the IC50 came to 540 nM.

Consider `CC[C@@H](NC(=O)c1cc(C(=O)N2CC[C@H](OCC(C)C)C2)n2c1COCC2)c1ccccc1` [16fg, 6-((S)-3-Isobutoxy-pyrrolidine-1-carbonyl)-3,4-dihydro-1H-pyrrolo[2,1-c][1,4]oxazine-8-carboxylic acid ((R)-1-phenyl-propyl)-amide], for which the IC50 turned out to be 1300 nM.

`CC[C@@H](NC(=O)c1cc(C(=O)N2CCC[C@@H]2C)n2c1COCC2)c1ccc(C(F)F)cc1` [16au, 6-((S)-2-Methyl-pyrrolidine-1-carbonyl)-3,4-dihydro-1H-pyrrolo[2,1-c][1,4]oxazine-8-carboxylic acid [(R)-1-(4-difluoromethyl-phenyl)-propyl]-amide]: the IC50 was found to be 340 nM.

Take `CC[C@@H](NC(=O)c1cc(C(=O)N2CCCC2c2ccn(C)n2)n2c1COCC2)c1ccccc1` (stereo partly drawn) [16fv, 6-[2-(1-Methyl-1H-pyrazol-3-yl)-pyrrolidine-1-carbonyl]-3,4-dihydro-1H-pyrrolo[2,1-c][1,4]oxazine-8-carboxylic acid ((R)-1-phenyl-propyl)-amide]: the IC50 amounted to 920 nM.

In the case of `CC[C@@H](NC(=O)c1cc(C(=O)N2CCC[C@@H]2C)n2c1COCC2)c1cccc(O)c1` [16ab, 6-((S)-2-Methyl-pyrrolidine-1-carbonyl)-3,4-dihydro-1H-pyrrolo[2,1-c][1,4]oxazine-8-carboxylic acid [(R)-1-(3-hydroxy-phenyl)-propyl]-amide], the IC50 worked out at 2600 nM.

With `CCO[C@H]1CCN(C(=O)c2cc(C(=O)N[C@H](CC)c3ccccc3)c3n2CCOC3)C1` [16es, 6-((S)-3-Ethoxy-pyrrolidine-1-carbonyl)-3,4-dihydro-1H-pyrrolo[2,1-c][1,4]oxazine-8-carboxylic acid ((R)-1-phenyl-propyl)-amide], the IC50 came to 1800 nM.

With `CC[C@@H](NC(=O)c1cc(C(=O)N2CCC[C@@H]2C)n2c1COCC2)c1cnc(OC)c(Cl)c1` [16b, 6-((S)-2-Methyl-pyrrolidine-1-carbonyl)-3,4-dihydro-1H-pyrrolo[2,1-c][1,4]oxazine-8-carboxylic acid [(R)-1-(5-chloro-6-methoxy-pyridin-3-yl)-propyl]-amide], the IC50 came to 61 nM.

Take `CC[C@@H](NC(=O)c1cc(C(=O)N2CCC[C@@H]2C)n2c1COCC2)c1ccc(Cl)s1` [16rb, 6-((S)-2-Methyl-pyrrolidine-1-carbonyl)-3,4-dihydro-1H-pyrrolo[2,1-c][1,4]oxazine-8-carboxylic acid [(R)-1-(5-chloro-thiophen-2-yl)-propyl]-amide]: the IC50 was found to be 230 nM.

As to `CC[C@@H](NC(=O)c1cc(C(=O)NCc2ccccc2)n2c1CCCC2)c1ccccc1` [16nf, 5,6,7,8-Tetrahydro-indolizine-1,3-dicarboxylic acid 3-benzylamide 1-[((R)-1-phenyl-propyl)-amide]], the IC50 was found to be 110 nM.

In the case of `CC[C@@H](NC(=O)c1cc(C(=O)N2CCC[C@@H]2C)n2c1COCC2)c1ccc(C(F)(F)F)cc1F` [16ct, 6-((S)-2-Methyl-pyrrolidine-1-carbonyl)-3,4-dihydro-1H-pyrrolo[2,1-c][1,4]oxazine-8-carboxylic acid [(R)-1-(2-fluoro-4-trifluoromethyl-phenyl)-propyl]-amide], the IC50 worked out at 210 nM.

In the case of `CC(NC(=O)c1cc(C(=O)N[C@H](C)c2ccc(F)cc2)n2c1CCCC2)c1ncccn1` (stereo partly drawn) [16lu, 5,6,7,8-Tetrahydro-indolizine-1,3-dicarboxylic acid 3-{[(R)-1-(4-fluoro-phenyl)-ethyl]-amide} 1-[(1-pyrimidin-2-yl-ethyl)-amide]], the half-maximal inhibitory concentration (IC50) was found to be 450 nM.

`CC[C@@H](NC(=O)c1cc(C(=O)N2Cc3ccccc3C2)n2c1COCC2)c1ccccc1` [16ih, 6-(1,3-Dihydro-isoindole-2-carbonyl)-3,4-dihydro-1H-pyrrolo[2,1-c][1,4]oxazine-8-carboxylic acid ((R)-1-phenyl-propyl)-amide]: the IC50 was 200 nM.

Regarding `CC[C@@H](NC(=O)c1cc(C(=O)NCc2ncco2)c2n1CCOC2)c1ccccc1` [16jn, 3,4-Dihydro-1H-pyrrolo[2,1-c][1,4]oxazine-6,8-dicarboxylic acid 8-[(oxazol-2-ylmethyl)-amide] 6-[((R)-1-phenyl-propyl)-amide]], the IC50 was 1000 nM.

As for `CC[C@@H](NC(=O)c1c(Br)c(C(=O)N2CCC[C@@H]2C)n2c1COCC2)c1ccc(C(F)(F)F)nc1` [16ru, 7-Bromo-6-((S)-2-methyl-pyrrolidine-1-carbonyl)-3,4-dihydro-1H-pyrrolo[2,1-c][1,4]oxazine-8-carboxylic acid [(R)-1-(6-trifluoromethyl-pyridin-3-yl)-propyl]-amide], the IC50 is 820 nM.

In the case of `CC[C@@H](NC(=O)c1cc(C(=O)N[C@H](CO)C(C)C)n2c1COCC2)c1ccccc1` [16iz, 3,4-Dihydro-1H-pyrrolo[2,1-c][1,4]oxazine-6,8-dicarboxylic acid 6-[((S)-1-hydroxymethyl-2-methyl-propyl)-amide] 8-[((R)-1-phenyl-propyl)-amide]], the IC50 was 1900 nM.

As for `CC[C@H](NC(=O)c1cc(C(=O)N[C@H](CC)c2ncccn2)c2n1CCOC2)c1ccccc1` [16kb, 3,4-Dihydro-1H-pyrrolo[2,1-c][1,4]oxazine-6,8-dicarboxylic acid 6-[((S)-1-phenyl-propyl)-amide] 8-[((R)-1-pyrimidin-2-yl-propyl)-amide]], the IC50 came to 620 nM.

Consider `CC[C@@H](NC(=O)c1cc(C(=O)NCCOC)n2c1COCC2)c1ccccc1` [16gh, 3,4-Dihydro-1H-pyrrolo[2,1-c][1,4]oxazine-6,8-dicarboxylic acid 6-[(2-methoxy-ethyl)-amide] 8-[((R)-1-phenyl-propyl)-amide]], for which the IC50 turned out to be 2200 nM.

Turning to `CC[C@@H](NC(=O)c1cc(C(=O)N2CCC[C@@H]2C)n2c1COCC2)c1ccc(C(F)(F)F)nc1C` [16cb, 6-((S)-2-Methyl-pyrrolidine-1-carbonyl)-3,4-dihydro-1H-pyrrolo[2,1-c][1,4]oxazine-8-carboxylic acid [(R)-1-(2-methyl-6-trifluoromethyl-pyridin-3-yl)-propyl]-amide], the IC50 came to 140 nM.

In the case of `CC[C@@H](NC(=O)c1cc(C(=O)N2CCC[C@H]2C)c2n1CCOC2)c1ccccc1` [16kj, 8-((R)-2-Methyl-pyrrolidine-1-carbonyl)-3,4-dihydro-1H-pyrrolo[2,1-c][1,4]oxazine-6-carboxylic acid ((R)-1-phenyl-propyl)-amide], the IC50 came out at 270 nM.

Turning to `CC[C@@H](NC(=O)c1cc(C(=O)N2CCC[C@@H]2C)n2c1COCC2)c1ccc(C#N)c(Cl)c1` [16d, 6-((S)-2-Methyl-pyrrolidine-1-carbonyl)-3,4-dihydro-1H-pyrrolo[2,1-c][1,4]oxazine-8-carboxylic acid [(R)-1-(3-chloro-4-cyano-phenyl)-propyl]-amide], the IC50 was determined as 240 nM.

As for `CC[C@@H](NC(=O)c1cc(C(=O)N2CCC[C@@H]2C)n2c1COCC2)c1ccc(C#N)cc1F` [16ay, 6-((S)-2-Methyl-pyrrolidine-1-carbonyl)-3,4-dihydro-1H-pyrrolo[2,1-c][1,4]oxazine-8-carboxylic acid [(R)-1-(4-cyano-2-fluoro-phenyl)-propyl]-amide], the IC50 is 910 nM.

Regarding `C[C@@H](NC(=O)c1cc(C(=O)N2CCC[C@@H]2C)n2c1CCCC2)c1ccc(Cl)cc1` [16ly, 3-((S)-2-Methyl-pyrrolidine-1-carbonyl)-5,6,7,8-tetrahydro-indolizine-1-carboxylic acid [(R)-1-(4-chloro-phenyl)-ethyl]-amide], the IC50 came to 92 nM.

Consider `CC[C@@H](NC(=O)c1cc(C(=O)N2CCC[C@@H]2C)n2c1COCC2)c1ccc(Cl)cc1` [16pg, 6-((S)-2-Methyl-pyrrolidine-1-carbonyl)-3,4-dihydro-1H-pyrrolo[2,1-c][1,4]oxazine-8-carboxylic acid [(R)-1-(4-chloro-phenyl)-propyl]-amide], for which the IC50 turned out to be 190 nM.

As usually defined, the inhibition is the relative decrease from the control value, in per cent. A word on the IC50: it is the point on the concentration scale where inhibition reaches its midpoint.
